SMILES | melting point
CC(C)n1nc(-c2sc(NC(=O)c3ccc(CN(C)C)cc3)nc2-c2ccccc2)ccc1=O [Example 28, 4-[(Dimethylamino)methyl]-N-[5-(1-isopropyl-6-oxo-1,6-dihydro-3-pyridazinyl)-4-phenyl-1,3-thiazol-2-yl]benzamide] | 246 to 248 °C
CC(C)n1nc(-c2sc(NC(=O)c3ccc4ccccc4c3)nc2-c2ccccc2)ccc1=O [Example 30, N-[5-(1-Isopropyl-6-oxo-1,6-dihydro-3-pyridazinyl)-4-phenyl-1,3-thiazol-2-yl]-2-naphthamide] | 227 to 229 °C
CC(C)n1nc(-c2sc(NC(=O)c3cccc4ccccc34)nc2-c2ccccc2)ccc1=O [Example 31, N-[5-(1-Isopropyl-6-oxo-1,6-dihydro-3-pyridazinyl)-4-phenyl-1,3-thiazol-2-yl]-1-naphthamide] | 223 to 224 °C
CC(C)n1nc(-c2sc(NC(=O)N3CCOCC3)nc2-c2ccccc2)ccc1=O [Example 32, N-[5-(1-Isopropyl-6-oxo-1,6-dihydro-3-pyridazinyl)-4-phenyl-1,3-thiazol-2-yl]-4-morpholinecarboxamide] | 231 to 232 °C
Cc1ccccc1C(=O)Nc1nc(-c2ccccc2)c(-c2ccc(=O)n(C(C)C)n2)s1 [Example 34, N-[5-(1-Isopropyl-6-oxo-1,6-dihydro-3-pyridazinyl)-4-phenyl-1,3-thiazol-2-yl]-2-methylbenzamide] | 221 to 222 °C
CC(C)n1nc(-c2sc(NC(=O)c3cccc(Cl)c3)nc2-c2ccccc2)ccc1=O [Example 35, 3-Chloro-N-[5-(1-isopropyl-6-oxo-1,6-dihydro-3-pyridazinyl)-4-phenyl-1,3-thiazol-2-yl]benzamide] | 173 to 174 °C
CC(C)n1nc(-c2sc(NC(=O)c3cccc(F)c3)nc2-c2ccccc2)ccc1=O [Example 36, 3-Fluoro-N-[5-(1-isopropyl-6-oxo-1,6-dihydro-3-pyridazinyl)-4-phenyl-1,3-thiazol-2-yl]benzamide] | 183 to 184 °C
CC(C)n1nc(-c2sc(NC(=O)c3ccccc3F)nc2-c2ccccc2)ccc1=O [Example 37, 2-Fluoro-N-[5-(1-isopropyl-6-oxo-1,6-dihydro-3-pyridazinyl)-4-phenyl-1,3-thiazol-2-yl]benzamide] | 251 to 252 °C
CC(C)n1nc(-c2sc(NC(=O)c3cccc(C(F)(F)F)c3)nc2-c2ccccc2)ccc1=O [Example 38, N-[5-(1-Isopropyl-6-oxo-1,6-dihydro-3-pyridazinyl)-4-phenyl-1,3-thiazol-2-yl]-3-(trifluoromethyl)benzamide] | 237 to 238 °C
CC(C)n1nc(-c2sc(NC(=O)c3ccc(C(F)(F)F)cc3)nc2-c2ccccc2)ccc1=O [Example 39, N-[5-(1-Isopropyl-6-oxo-1,6-dihydro-3-pyridazinyl)-4-phenyl-1,3-thiazol-2-yl]-4-(trifluoromethyl)benzamide] | 162 to 167 °C
CC(C)n1nc(-c2sc(NC(=O)c3ccccc3C(F)(F)F)nc2-c2ccccc2)ccc1=O [Example 40, N-[5-(1-Isopropyl-6-oxo-1,6-dihydro-3-pyridazinyl)-4-phenyl-1,3-thiazol-2-yl]-2-(trifluoromethyl)benzamide] | 219 to 220 °C
COc1ccccc1C(=O)Nc1nc(-c2ccccc2)c(-c2ccc(=O)n(C(C)C)n2)s1 [Example 41, N-[5-(1-Isopropyl-6-oxo-1,6-dihydro-3-pyridazinyl)-4-phenyl-1,3-thiazol-2-yl]-2-methoxybenzamide] | > 250 °C
CC(C)n1nc(-c2sc(NC(=O)c3cc(C(F)(F)F)cc(C(F)(F)F)c3)nc2-c2ccccc2)ccc1=O [Example 44, N-[5-(1-Isopropyl-6-oxo-1,6-dihydro-3-pyridazinyl)-4-phenyl-1,3-thiazol-2-yl]-3,5-bis(trifluoromethyl)benzamide] | 207 to 208 °C
COc1ccc(C(=O)Nc2nc(-c3ccccc3)c(-c3ccc(=O)n(C(C)C)n3)s2)cc1 [Example 45, N-[5-(1-Isopropyl-6-oxo-1,6-dihydro-3-pyridazinyl)-4-phenyl-1,3-thiazol-2-yl]-4-methoxybenzamide] | 219 to 221 °C
CC(C)n1nc(-c2sc(NC(=O)c3ccccc3Cl)nc2-c2ccccc2)ccc1=O [Example 46, 2-Chloro-N-[5-(1-isopropyl-6-oxo-1,6-dihydro-3-pyridazinyl)-4-phenyl-1,3-thiazol-2-yl]benzamide] | 220 to 221 °C
CC(C)n1nc(-c2sc(NC(=O)c3ccc(Cl)cc3)nc2-c2ccccc2)ccc1=O [Example 47, 4-Chloro-N-[5-(1-isopropyl-6-oxo-1,6-dihydro-3-pyridazinyl)-4-phenyl-1,3-thiazol-2-yl]benzamide] | 205 to 206 °C
CC(C)n1nc(-c2sc(NC(=O)c3ccc(F)cc3)nc2-c2ccccc2)ccc1=O [Example 48, 4-fluoro-N-[5-(1-isopropyl-6-oxo-1,6-dihydro-3-pyridazinyl)-4-phenyl-1,3-thiazol-2-yl]benzamide] | 225 to 226 °C
CC(C)n1nc(-c2sc(NC(=O)c3c(Cl)cccc3Cl)nc2-c2ccccc2)ccc1=O [Example 49, 2,6-Dichloro-N-[5-(1-isopropyl-6-oxo-1,6-dihydro-3-pyridazinyl)-4-phenyl-1,3-thiazol-2-yl]benzamide] | 248 to 249 °C
CC(C)n1nc(-c2sc(NC(=O)c3ccc(I)cc3)nc2-c2ccccc2)ccc1=O [Example 51, 4-Iodo-N-[5-(1-isopropyl-6-oxo-1,6-dihydro-3-pyridazinyl)-4-phenyl-1,3-thiazol-2-yl]benzamide] | 253 to 254 °C
CC(C)n1nc(-c2sc(NC(=O)c3ccccc3OC(F)(F)F)nc2-c2ccccc2)ccc1=O [Example 53, N-[5-(1-Isopropyl-6-oxo-1,6-dihydro-3-pyridazinyl)-4-phenyl-1,3-thiazol-2-yl]-2-(trifluoromethoxy)benzamide] | 212 to 213 °C
CC(C)n1nc(-c2sc(NC(=O)c3ccc(CCl)cc3)nc2-c2ccccc2)ccc1=O [Example 56, 4-(Chloromethyl)-N-[5-(1-isopropyl-6-oxo-1,6-dihydro-3-pyridazinyl)-4-phenyl-1,3-thiazol-2-yl]benzamide] | > 250 °C
CC(C)n1nc(-c2sc(NC(=O)C3CC3)nc2-c2ccc(F)cc2)ccc1=O [Example 57, N-[4-(4-Fluorophenyl)-5-(1-isopropyl-6-oxo-1,6-dihydro-3-pyridazinyl)-1,3-thiazol-2-yl]cyclopropanecarboxamide] | 250 to 252 °C
CC(C)n1nc(-c2sc(NCCCN3CCOCC3)nc2-c2ccccc2)ccc1=O [Example 68, 2-I sopropyl-6-(2-{[3-(4-morpholinyl)propyl]amino}-4-phenyl-1,3-thiazol-5-yl)-3(2H)-pyridazinone] | 194 to 195 °C

The remaining lines, values ahead:

melting point | SMILES
226 to 227 °C | CC(C)n1nc(-c2sc(NC(=O)C3CC3)nc2-c2ccccc2)ccc1=O [Example 33, N-[5-(1-Isopropyl-6-oxo-1,6-dihydro-3-pyridazinyl)-4-phenyl-1,3-thiazol-2-yl]cyclopropanecarboxamide]
198 to 199 °C | Cc1cccc(C(=O)Nc2nc(-c3ccccc3)c(-c3ccc(=O)n(C(C)C)n3)s2)c1 [Example 42, N-[5-(1-Isopropyl-6-oxo-1,6-dihydro-3-pyridazinyl)-4-phenyl-1,3-thiazol-2-yl]-3-methylbenzamide]
199 to 200 °C | CC(C)n1nc(-c2sc(NC(=O)N(C)C)nc2-c2ccccc2)ccc1=O [Example 50, N′-[5-(1-Isopropyl-6-oxo-1,6-dihydro-3-pyridazinyl)-4-phenyl-1,3-thiazol-2-yl]-N,N-dimethylurea]
138 to 140 °C | CC(C)n1nc(-c2sc(NC(=O)N3CCCCC3)nc2-c2ccccc2)ccc1=O [Example 52, N-[5-(1-Isopropyl-6-oxo-1,6-dihydro-3-pyridazinyl)-4-phenyl-1,3-thiazol-2-yl]-1-piperidinecarboxamide]
198 to 199 °C | CC(C)CC(=O)Nc1nc(-c2ccccc2)c(-c2ccc(=O)n(C(C)C)n2)s1 [Example 58, N-[5-(1-Isopropyl-6-oxo-1,6-dihydro-3-pyridazinyl)-4-phenyl-1,3-thiazol-2-yl]-3-methylbutanamide]
189 to 190 °C | CC(C)n1nc(-c2sc(NC(C)(C)C)nc2-c2ccccc2)ccc1=O [Example 61, 6-[2-(tert-Butylamino)-4-phenyl-1,3-thiazol-5-yl]-2-isopropyl-3(2H)-pyridazinone]
167 to 169 °C | CCNc1nc(-c2ccccc2)c(-c2ccc(=O)n(C(C)C)n2)s1 [Example 62, 6-[2-(Ethylamino)-4-phenyl-1,3-thiazol-5-yl]-2-isopropyl-3(2H)-pyridazinone]
> 250 °C | CC(C)n1nc(-c2sc(NC(=N)N)nc2-c2ccccc2)ccc1=O [Example 63, N-[5-(1-Isopropyl-6-oxo-1,6-dihydro-3-pyridazinyl)-4-phenyl-1,3-thiazol-2-yl]guanidine]
138 to 139 °C | CC(C)Nc1nc(-c2ccccc2)c(-c2ccc(=O)n(C(C)C)n2)s1 [Example 64, 2-Isopropyl-6-[2-(isopropylamino)-4-phenyl-1,3-thiazol-5-yl]-3(2H)-pyridazinone]
157 to 158 °C | CC(C)n1nc(-c2sc(NCc3ccccc3)nc2-c2ccccc2)ccc1=O [Example 65, 6-[2-(Benzylamino)-4-phenyl-1,3-thiazol-5-yl]-2-isopropyl-3 (2H)-pyridazinone]
115 to 116 °C | CC(C)n1nc(-c2sc(NCc3ccco3)nc2-c2ccccc2)ccc1=O [Example 66, 6-{2-[(2-Furylmethyl)amino]-4-phenyl-1,3-thiazol-5-yl}-2-isopropyl-3(2H)-pyridazinone]
194 to 195 °C | CC(C)n1nc(-c2sc(Nc3ccccn3)nc2-c2ccccc2)ccc1=O [Example 67, 2-Isopropyl-6-[4-phenyl-2-(2-pyridinylamino)-1,3-thiazol-5-yl]-3(2H)-pyridazinone]
149 to 151 °C | CC(C)n1nc(-c2sc(NC3CCCCC3)nc2-c2ccccc2)ccc1=O [Example 70, 6-[2-(Cyclohexylamino)-4-phenyl-1,3-thiazol-5-yl]-2-isopropyl-3(2H)-pyridazinone]

— patent publication US20050004134A1, “Thiazole derivative and pharmaceutical use thereof” (priority 2001, published 2005)
